In patent US20160052926A1, “NOVEL PYRIMIDINE AND PYRIDINE COMPOUNDS AND USAGE THEREOF” (HUTCHISON MEDIPHARMA LIMITED, priority 2013, published 2016):
pIC50: −log10 of the molar value. Where two headings read alike, the source gives them in different places.

Legend:
Recombinant human FGFR2 = Recombinant human FGFR2 (Homo sapiens, UniProt P21802); assay: Transcreener Kinase Assay of FGFR2; format: biochemical
SNU-16 = assay: Cellular Proliferation Assay (Cell Counting Kit-8), SNU-16; format: cell-based; conditions: Homo sapiens, SNU-16 cells, 72 hours
Protocol: (§1) Cellular Proliferation Assay
(§2) • KG-1 (ATCC Accession No. CCL-246), • SNU-16 (ATCC Accession No. CRL-5974), • RT-112 (ECACC Accession No. 85061106)
(§3) • FGFR related cancer cell proliferation is measured in 96-well plates using Cell Counting Kit-8 (Dojindo CK04-13). • Seed 30000 cells/well of KG1, 5000 cells/well of SNU16, and 1000 cells/well of RT112 in a volume of 100 μL/well in growth media. • After 24 hours, dilute the compound to 10, 3.3, 1.1, 0.37, 0.12, 0.04, 0.013, 0.004 μM, keeping the DMSO concentration at 5%. • Add 10 μL of 8-point compound series to the wells of culturing cells. • Incubate at 37° C. and 5% CO2 for 72 hours • Add 10 μL/well of CCkit8 and incubate at 37° C. and 5% CO2 for an hour • Detect the optical density of each well at 450 nm on Labsystems Multiskan K3.
(§4) • ODcompound well represents the optical density of cells treated with compound. • ODcell well represents the optical density of cells without compounds treatment. (only 0.5% DMSO) • ODcontrol well represents the optical density of culture media background
(§5) The concentration of compound providing 50% of proliferation inhibition was calculated using Excel Fit.

RT-112 = assay: Cellular Proliferation Assay (Cell Counting Kit-8), RT-112; format: cell-based; conditions: Homo sapiens, RT-112 cells, 72 hours
Protocol: as §1, §2, §3, §4, §5

FGFR3 kinase = FGFR3 kinase (Homo sapiens, UniProt P22607); assay: Z-Lyte Kinase Assay of FGFR3; format: biochemical
In short: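 Kinase at 0.7 μg/ml with 4 μM Z-LYTE Tyr 4 peptide and ATP diluted to 300 uM (working solution, 1.33× buffer); compounds 1–0.00046 μM, 2% DMSO final. Kinase reaction and development each 1 h at RT (25-30[…]); coumarin (445 nm) and fluorescein (520 nm) emission read, inhibition from % phosphorylation.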

Recombinant human FGFR1 = Recombinant human FGFR1 (Homo sapiens, UniProt P11362); assay: Transcreener Kinase Assay of FGFR1; format: biochemical
KG-1 = assay: Cellular Proliferation Assay (Cell Counting Kit-8), KG-1; format: cell-based; conditions: Homo sapiens, KG1 cells, 72 hours
Protocol: as §1, §2, §3, §4, §5

Sequence of Recombinant human FGFR2 (P21802 22-821): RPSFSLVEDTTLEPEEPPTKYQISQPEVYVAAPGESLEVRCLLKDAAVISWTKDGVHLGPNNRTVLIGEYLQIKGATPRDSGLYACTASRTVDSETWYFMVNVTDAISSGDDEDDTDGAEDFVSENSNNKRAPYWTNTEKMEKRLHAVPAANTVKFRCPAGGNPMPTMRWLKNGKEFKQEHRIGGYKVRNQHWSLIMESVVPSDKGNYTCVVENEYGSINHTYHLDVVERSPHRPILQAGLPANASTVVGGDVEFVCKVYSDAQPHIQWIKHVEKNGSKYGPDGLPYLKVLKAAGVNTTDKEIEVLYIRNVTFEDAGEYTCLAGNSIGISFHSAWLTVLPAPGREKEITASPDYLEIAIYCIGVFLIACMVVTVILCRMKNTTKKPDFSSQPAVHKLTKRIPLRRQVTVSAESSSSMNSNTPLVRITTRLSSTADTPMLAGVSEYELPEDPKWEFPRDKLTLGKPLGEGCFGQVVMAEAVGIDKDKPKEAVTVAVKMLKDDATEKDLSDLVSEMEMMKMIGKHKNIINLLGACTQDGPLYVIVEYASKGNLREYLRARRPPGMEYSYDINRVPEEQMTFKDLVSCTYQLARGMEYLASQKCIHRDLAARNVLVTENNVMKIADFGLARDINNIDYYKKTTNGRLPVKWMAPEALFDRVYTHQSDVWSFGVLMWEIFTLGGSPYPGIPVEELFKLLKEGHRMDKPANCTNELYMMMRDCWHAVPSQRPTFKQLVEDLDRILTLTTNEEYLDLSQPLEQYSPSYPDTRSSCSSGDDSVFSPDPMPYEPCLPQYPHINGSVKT
Sequence of FGFR3 kinase (P22607 23-806): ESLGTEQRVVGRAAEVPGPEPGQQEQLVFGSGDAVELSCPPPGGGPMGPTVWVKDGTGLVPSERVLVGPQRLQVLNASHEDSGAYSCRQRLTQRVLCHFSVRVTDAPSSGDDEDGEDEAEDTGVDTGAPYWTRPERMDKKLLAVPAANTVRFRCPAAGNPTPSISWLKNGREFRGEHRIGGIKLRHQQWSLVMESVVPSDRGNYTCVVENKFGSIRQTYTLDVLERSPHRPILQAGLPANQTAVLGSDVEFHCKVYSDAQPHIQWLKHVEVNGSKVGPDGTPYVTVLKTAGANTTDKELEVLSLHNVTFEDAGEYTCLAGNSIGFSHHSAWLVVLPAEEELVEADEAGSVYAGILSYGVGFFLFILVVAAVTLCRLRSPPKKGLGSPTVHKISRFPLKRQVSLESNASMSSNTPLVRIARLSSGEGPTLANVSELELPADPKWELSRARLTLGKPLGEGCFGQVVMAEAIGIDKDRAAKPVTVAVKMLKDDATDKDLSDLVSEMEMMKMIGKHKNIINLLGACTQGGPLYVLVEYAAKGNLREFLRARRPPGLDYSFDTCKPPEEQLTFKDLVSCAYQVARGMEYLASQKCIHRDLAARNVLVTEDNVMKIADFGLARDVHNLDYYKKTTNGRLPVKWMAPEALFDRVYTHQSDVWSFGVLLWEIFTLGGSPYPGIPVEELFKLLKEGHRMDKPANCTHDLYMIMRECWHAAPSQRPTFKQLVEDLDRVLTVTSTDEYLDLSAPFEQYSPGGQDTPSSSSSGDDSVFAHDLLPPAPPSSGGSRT
Sequence of Recombinant human FGFR1 (P11362 22-822): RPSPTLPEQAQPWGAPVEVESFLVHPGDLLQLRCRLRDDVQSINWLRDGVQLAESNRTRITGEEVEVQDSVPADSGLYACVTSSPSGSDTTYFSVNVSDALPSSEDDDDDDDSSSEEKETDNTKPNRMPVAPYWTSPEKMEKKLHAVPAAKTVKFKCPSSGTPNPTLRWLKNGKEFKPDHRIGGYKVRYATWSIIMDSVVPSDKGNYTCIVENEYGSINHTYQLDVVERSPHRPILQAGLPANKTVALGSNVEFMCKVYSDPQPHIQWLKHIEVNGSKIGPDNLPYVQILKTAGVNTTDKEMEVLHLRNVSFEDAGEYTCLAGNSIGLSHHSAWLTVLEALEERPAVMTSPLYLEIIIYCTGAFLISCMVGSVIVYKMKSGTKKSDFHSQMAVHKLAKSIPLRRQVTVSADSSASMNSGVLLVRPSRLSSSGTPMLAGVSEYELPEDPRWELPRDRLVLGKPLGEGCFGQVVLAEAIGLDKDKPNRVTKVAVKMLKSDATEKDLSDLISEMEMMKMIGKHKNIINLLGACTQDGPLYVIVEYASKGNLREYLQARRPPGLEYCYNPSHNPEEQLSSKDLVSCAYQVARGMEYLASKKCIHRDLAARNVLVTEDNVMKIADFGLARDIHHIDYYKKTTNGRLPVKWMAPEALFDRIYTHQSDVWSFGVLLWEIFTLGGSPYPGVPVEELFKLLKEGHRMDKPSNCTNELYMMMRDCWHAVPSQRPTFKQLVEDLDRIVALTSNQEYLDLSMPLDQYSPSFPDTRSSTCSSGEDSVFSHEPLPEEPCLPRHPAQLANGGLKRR

SMILES | pIC50 (Recombinant human FGFR2; read-out: FGFR2 (FP) IC50) | pIC50 (SNU-16) | pIC50 (RT-112) | pIC50 (FGFR3 kinase) | pIC50 (Recombinant human FGFR1; read-out: FGFR1 (FP) IC50) | pIC50 (KG-1) | pIC50 (Recombinant human FGFR2; FGFR2 (FP) IC50) | pIC50 (Recombinant human FGFR1; FGFR1 (FP) IC50)
CCN1CCN(c2ccc(Nc3ncc(CCc4cc(OC)cc(C(=O)NC)c4)cn3)cc2)CC1 [Compound 1, 3-(2-(2-((4-(4-ethylpiperazin-1-yl)phenyl)amino)pyrimidin-5-yl)ethyl)-5-methoxy-N-methylbenzamide] | 7.72 | 7.02 | 6.21 | 7.55 | 7.62 | 7.31 | – | –
CCn1cc(Nc2ncc(/C=C/c3c(F)c(C(=O)NC)cc(OC)c3Cl)cn2)cn1 [Compound 2] | 8.00 | 7.51 | 7.72 | 7.77 | 7.77 | 7.77 | – | –
CCn1cc(Nc2ncc(/C=C/c3cc(C(=O)NC)cc(OC)c3Br)cn2)cn1 [Compound 3] | – | 6.87 | 6.43 | – | – | 7.14 | – | –
CNC(=O)c1cc(OC)c(Cl)c(/C=C/c2cnc(Nc3ccc(N4C[C@@H](C)N[C@@H](C)C4)cc3)nc2)c1F [Compound 8] | 8.30 | 7.85 | 7.72 | 7.85 | 8.22 | 7.96 | – | –
CNC(=O)c1cc(CCc2cnc(Nc3cnn(C4CCC4)c3)nc2)c(F)c(OC)c1 [Compound 10] | 8.30 | 7.66 | 7.54 | 8.10 | 7.60 | 7.74 | – | –
CNC(=O)c1cc(CCc2cnc(Nc3ccc(N4CCOCC4)cc3)nc2)c(F)c(OC)c1 [Compound 11] | 8.05 | 7.55 | 7.47 | 8.15 | 7.74 | 7.40 | – | –
CCN(CC)CCCn1cc(Nc2ncc(CCc3cc(C(=O)NC)cc(OC)c3F)cn2)cn1 [Compound 13] | 8.00 | 7.68 | 7.23 | 8.15 | 7.54 | 6.30 | – | –
CNC(=O)c1cc(CCc2cnc(Nc3ccc(N4C[C@@H](C)N[C@@H](C)C4)cc3)nc2)c(F)c(OC)c1 [Compound 21, 3-(2-(2-((4-((3R,5S)-3,5-dimethylpiperazin-1-yl)phenyl)amino)pyrimidin-5-yl)ethyl)-4-fluoro-5-methoxy-N-methylbenzamide] | 8.22 | 7.80 | 7.28 | 7.85 | 8.05 | 7.40 | – | –
CONC(=O)c1cc(CCc2cnc(Nc3ccccc3)nc2)cc(OC)c1 [Compound 22] | 8.30 | 7.59 | 7.08 | 7.70 | 8.05 | 7.55 | – | –
CNC(=O)c1cc(CCc2cnc(Nc3cnn(C)c3)nc2)c(F)c(OC)c1 [Compound 25] | 8.10 | 7.64 | 6.66 | 7.52 | 7.82 | 7.41 | – | –
CNC(=O)c1cc(CCc2cnc(Nc3ccc(C)nc3)nc2)c(F)c(OC)c1 [Compound 26] | 7.92 | 7.54 | 7.03 | 7.57 | 7.70 | 7.32 | – | –
CCn1cc(Nc2ncc(CCc3cc(OC)cc(C(=O)NC)c3F)cn2)cn1 [Compound 27] | 7.38 | 6.53 | 6.40 | 7.68 | 6.59 | 6.47 | – | –
CNC(=O)c1cc(CCc2cnc(Nc3ccc(OC)nc3)nc2)c(F)c(OC)c1 [Compound 30] | 8.00 | 7.17 | 6.62 | 7.40 | 7.54 | 7.26 | – | –
CNC(=O)c1cc(CCc2cnc(Nc3ccc4c(c3)OCO4)nc2)c(F)c(OC)c1 [Compound 31] | 7.64 | 6.63 | 6.31 | 6.54 | 7.38 | 6.75 | – | –
CNC(=O)c1cc(CCc2cnc(Nc3cnn(C[C@H](C)O)c3)nc2)c(F)c(OC)c1 [Compound 32] | 8.22 | 7.52 | 6.98 | 8.30 | 7.74 | 7.24 | – | –
CNC(=O)c1cc(CCc2cnc(Nc3cnn(C[C@@H](C)O)c3)nc2)c(F)c(OC)c1 [Compound 33] | 8.15 | 7.72 | 6.87 | 7.77 | 7.66 | 7.33 | – | –
CNC(=O)c1cc(CCc2cnc(Nc3ccc4nc(C)oc4c3)nc2)c(F)c(OC)c1 [Compound 34] | 7.89 | 7.24 | 6.51 | 7.34 | 7.48 | 6.88 | – | –
CNC(=O)c1cc(CCc2cnc(Nc3ccc(-n4cccn4)cc3)nc2)c(F)c(OC)c1 [Compound 35] | 8.05 | 6.80 | 6.34 | 7.08 | 7.52 | 6.72 | – | –
CNC(=O)c1cc(CCc2cnc(Nc3cnn(CC(F)(F)F)c3)nc2)c(F)c(OC)c1 [Compound 36] | 6.21 | 7.54 | 6.80 | 7.51 | 7.68 | 7.28 | – | –
CNC(=O)c1cc(CCc2cnc(Nc3cccc(N4CCOCC4)c3)nc2)c(F)c(OC)c1 [Compound 38] | 8.52 | 7.52 | 7.07 | 7.70 | 8.10 | 7.55 | – | –
CCS(=O)(=O)n1cc(Nc2ncc(CCc3cc(C(=O)NC)cc(OC)c3F)cn2)cn1 [Compound 140, 3-(2-(2-(1-(ethylsulfonyl)-1H-pyrazol-4-ylamino)pyrimidin-5-yl)ethyl)-4-fluoro-5-methoxy-N-methylbenzamide] | 7.80 | 7.21 | 6.36 | 7.22 | – | 6.82 | – | –
CNC(=O)c1cc(CCc2cnc(Nc3cnn(CC4CC4)c3)nc2)c(F)c(OC)c1 [Compound 141, 3-(2-(2-(1-(cyclopropylmethyl)-1H-pyrazol-4-ylamino)pyrimidin-5-yl)ethyl)-4-fluoro-5-methoxy-N-methylbenzamide] | – | – | 6.95 | – | – | 7.82 | 8.30 | 7.96
CNC(=O)c1cc(COc2cnc(Nc3cnn(C)c3)nc2)c(Cl)c(OC)c1 [Compound 183] | 8.30 | 8.10 | 7.85 | – | 8.15 | 8.05 | – | –
CCn1cc(Nc2ncc(OCc3cc(C(=O)NC)cc(OC)c3Cl)cn2)cn1 [Compound 184] | 8.15 | 8.00 | 7.28 | – | 8.05 | 8.30 | – | –
